The target in assay [1] is T1, rat EP4 receptor (Rattus norvegicus, UniProt P43114). Put plainly: Evaluation test of rat EP4 receptor affinity ([3H]PGE2 binding, membrane fraction of HEK293 cells expressing rat EP4). More on the design: expressed in transfected cells; host or cells: HEK293 cells, transient transfection with Lipofectamine 2000; membrane fraction. To be noted: [3H]PGE2 0.3 nM. As for the experimental part:
Evaluation Test of Rat EP4 Receptor Affinity
Cell Culturing and Transfection
Using a 10 cm collagen-coated dish (Asahi Glass), HEK293 cells were cultured in D-MEM culture medium, the culture medium was removed at a confluence (90 to 100% density state) and washed with a phosphate buffer saline (PBS), and then the cells were detached with N,N,N′,N′-tetrakis(carboxymethyl)ethylenediamine (EDTA). The number of the cells were counted and seeded on a 15 cm collagen-coated dish to a confluence of 70%. On the next day, to an Opti-MEM culture medium at 1.2 mL/dish was added Lipofectamine 2000 (Invitrogen) at 60 μL/dish, followed by leaving to stand at room temperature for 5 minutes. A plasmid in which rat EP4 (Sequence Number 1) had been inserted into a TA cloning site of pcDNA3.1-V5-His-topo was added thereto at 15 μg/dish. After leaving to stand at room temperature for 30 minutes, the resultant was added to the dish and cultured for 20 to 24 hours. The cell culture was carried out in a CO2 incubator (37° C., 5% CO2).
Preparation of Membrane Fraction
The culture medium was removed by suction, 10 mL of cooled PBS was added thereto per 15 cm dish, and the cells were scraped using a cell scraper (Sumitomo Bakelite). They were washed with cooled PBS (1,200 rpm, 4° C., 5 min), and then suspended in 6 mL of cooled 20 mM Tris-HCl (pH 7.4; Nakalai Tesque Inc., including 5 mM EDTA (Nakalai Tesque Inc.) per dish and the resultant was homogenized using a Polytron and the homogenate was centrifuged (26,000 rpm, 20 min, 4° C.). The obtained precipitate was resuspended in cooled 20 mM Tris-HCl and homogenized again using a Polytron, and the homogenate was centrifuged (26,000 rpm, 20 min, 4° C.). The obtained precipitate was resuspended in 50 mM HEPES (pH 7.5; Dojindo Laboratories) at 1 mL per dish, homogenized using a Polytron, and freeze-stored at −80° C. as a membrane fraction. At this time, a part thereof was used for the measurement of the protein concentration. Measurement of the protein concentration was carried out in duplicate using a Bio-Rad Protein assay kit (Bio-Rad Laboratories) in accordance with the appended standard Protocol.
[^3H]PGE2 50 μL (final concentration 0.3 nM; Perkin Elmer), 100 μL (20 μg/well) of a membrane fraction prepared from the rat EP4 expression cell and 50 μL of a test compound were mixed in a 96-well microplate (Sumitomo Bakelite), incubated at room temperature for 1 hour, filtered by suction on a UniFilter-96 GF/B (Perkin Elmer) using a FilterMate Harvester (Perkin Elmer), and then washed three times with 300 μL/well of a cooled assay buffer. Dilution of [^3H]PGE2 and the membrane fraction was carried out using an assay buffer (50 mM HEPES, 10 mM MgCl2), and dilution of the test compound and the unlabeled PGE2 was carried out using DMSO and an assay buffer. Further, in the case of the addition of a human serum albumin (HSA), dilution was carried out using an assay buffer containing 4% HSA (final concentration 1%; Sigma). The UniFilter-96 GF/B was treated preliminarily by washing twice with 200 μL/well of a cooled assay buffer. The UniFilter-96 GF/B after filtration was dried in a dryer overnight, 50 μL/well of MicroScint20 (Perkin Elmer) was added thereto, and then the radioactivity was measured using a TopCount (Perkin Elmer). For measurement of the non-specific binding, an unlabeled PGE2 (final concentration 1 μM; Cayman) was added. All of the measurements were carried out in duplicate, and the specific binding amount was determined by subtracting the non-specific binding amount from the total binding amount. The Ki value was calculated according to the general methods.
In the connection, Ex represents the below-described Example Compound number.

Assay [2] has as its target T1, rat EP4 receptor. Briefly: Rat EP4 receptor antagonistic activity by measurement of cAMP amount (rEP4 cAMP HTRF assay, CHO cells). In kind it is cell-based. Also on record: expressed in transfected cells. To be noted: inhibition of cAMP, PGE2 100 nM, CHO cells expressing rat EP4. As for the experimental part:
Evaluation Test of Rat EP4 Receptor Antagonistic Activity by Measurement of cAMP Amount
CHO cells in which rat EP4 had been forced to be expressed were seeded in 96-well plates at 2×10^4 cells/100 μL and cultured overnight. The culture medium was replaced with 2 μM Indomethacin/0.1% BSA/alpha-MEM, and further, after 60 minutes, replaced with 1 mM IBMX/2 μM Indomethacin/0.1% BSA/alpha-MEM. After 10 minutes, the test compound was added, and further, after 10 minutes, PGE2 was added at a final concentration of 100 nM. The cells were cultured and reacted in a CO2 incubator (37° C., 5% CO2). After 30 minutes, the culture medium was removed and 100 μL/well of 0.2% Triton X-PBS was added for lysis of the cells. The cAMP contained in this cell lysis solution was measured with a cAMP HiRange kit (Cisbio international). The cell lysis solution was disperesed at 10 μL each into a 384-well U-bottom black microplate (Corning), and a d2 reagent and an europium cryptate reagent were added in this order to each well, each in an amount of 5 μL. It was incubated at room temperature for 60 minutes under light shielding. After incubation, the fluorescence of the cryptate at 620 nm and the fluorescence of the d2 at 655 nm were measured using ARVO1420 (PerkinElmer). The cAMPs of 280, 70, 17.5, 4.38, 1.09, 0.27, and 0.068 nM were measured simultaneously for creating a standard curve. The inhibitory rates were calculated by determining the cAMP amount of each test sample to the value obtained by subtracting the cAMP amount of the group without addition of PGE2 from the cAMP amount of the group with addition of PGE2 of 100 nM. IC50 values are calculated by a Logistic regression method.
In general terms: In TR-FRET formats the signal depends on donor and acceptor labels being close together.

Assay [3] has as its target T1, rat EP4 receptor. Briefly: In vivo rat EP4 receptor antagonistic activity (ONO-4819/LPS, plasma TNF-α). To be noted: SD rat, oral. How it is done:
Evaluation Test of In Vivo Rat EP4 Receptor Antagonistic Activity
A solution of PEG 400:20% Tween 80:aqueous 1 M NaHCO3 solution=1:4:5 of a test compound was orally administered to a SD rat (male, 6-week old) under non-fasting conditions, and after 1 hour, ONO-4819 was administered subcutaneously to the back of the rat. After 30 minutes, Lipopolysaccharide (LPS, 0.01 mg/kg) was administered to the tail vein without anesthesia, and after 60 minutes, 0.5 mL of heparin blood was collected from the fundus under ether anesthesia. The blood sample was centrifuged (3000 rpm, 10 minutes) to separate the plasma, and then the TNF-α concentration in the rat plasma was measured by an ELISA kit (see Hepatology Research Journal, vol. 21, 252-260, 2001). A value obtained by subtracting the TNF-α concentration of the group treated with ONO-4819 from the TNF-α concentration of the group not treated with ONO-4819 was taken as 100%, and the inhibitory rates to the value were calculated for the test compounds.
In this connection, Ex represents the below-described Example compound number.

The text below walks through data of patent publication US8598355B2, “Amide compound” (Astellas Pharma Inc., priority 2008, dated 2013).

For orientation: Ki means a dissociation constant, usually derived from enzyme kinetics or from competition with a known ligand. High values mean weaker binding, low ones tighter binding. A word on the IC50: it is the concentration needed to halve the response being measured. Higher therefore signals lower potency.

Structures are written as SMILES.

T1 sequence (P43114 whole entry): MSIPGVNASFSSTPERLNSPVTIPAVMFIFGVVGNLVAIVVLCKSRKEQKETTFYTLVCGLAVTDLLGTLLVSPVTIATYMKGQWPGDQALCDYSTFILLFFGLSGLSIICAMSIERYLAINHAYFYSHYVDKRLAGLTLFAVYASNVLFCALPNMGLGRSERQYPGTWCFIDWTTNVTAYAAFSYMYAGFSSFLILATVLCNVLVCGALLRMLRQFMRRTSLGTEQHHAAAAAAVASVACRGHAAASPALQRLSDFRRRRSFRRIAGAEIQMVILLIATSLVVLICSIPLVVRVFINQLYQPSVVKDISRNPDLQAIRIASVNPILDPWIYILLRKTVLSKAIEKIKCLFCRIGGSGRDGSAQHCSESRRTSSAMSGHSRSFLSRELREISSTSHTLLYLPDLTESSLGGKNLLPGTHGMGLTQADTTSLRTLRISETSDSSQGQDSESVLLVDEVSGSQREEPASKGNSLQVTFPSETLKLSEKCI

For `O=C(O)c1ccc(CNC(=O)c2cc(Cl)cc3ccn(Cc4ccc5ccccc5n4)c23)cc1` [Example 57], the affinity in assay [1] corresponds to a Ki of 0.85 nM. In assay [2], the IC50 is 0.76 nM. Further, the “Inhibitory rate (%)” value in assay [3] (dose 0.03 mg/kg) is on record as 113%.
On to `O=C(NC[C@H]1CC[C@H](C(=O)O)CC1)c1cc(Cl)cc2ccn(Cc3ccc4ccccc4n3)c12` [Example 53], for which, in assay [1], affinity was put at a Ki of 1.4 nM. The midpoint of inhibition in assay [2], the IC50, lay at 0.9 nM. In addition, in assay [3] (dose 0.01 mg/kg), the “Inhibitory rate (%)” value was 45%.
In the case of `O=C(NC[C@H]1CC[C@H](C(=O)O)CC1)c1cc(C(F)(F)F)cc2ccn(Cc3ccc4ccccc4n3)c12` [Example 124], the affinity in assay [1], expressed as Ki, was 1.4 nM. This molecule yielded an IC50 in assay [2] of 1.1 nM. Also, the “Inhibitory rate (%)” value in assay [3] (dose 0.03 mg/kg) is 105%.
